# ChEMBL document CHEMBL5241112, “Insights into the recent progress in the medicinal chemistry of pyranopyrimidine analogs” (RSC Med Chem, 2022)
# How the values were obtained:
# Bacillus subtilis = assay: Antibacterial activity against Bacillus subtilis assessed as diameter of inhibition zone; assay type: functional
# Salmonella typhimurium = assay: Antibacterial activity against Salmonella typhimurium assessed as diameter of inhibition zone; assay type: functional, Salmonella enterica subsp. enterica serovar Typhimurium
# Urease = Urease (Canavalia ensiformis, UniProt P07374); assay: Inhibition of jack bean urease by phenol red method
# Chain of Urease (P07374 whole entry): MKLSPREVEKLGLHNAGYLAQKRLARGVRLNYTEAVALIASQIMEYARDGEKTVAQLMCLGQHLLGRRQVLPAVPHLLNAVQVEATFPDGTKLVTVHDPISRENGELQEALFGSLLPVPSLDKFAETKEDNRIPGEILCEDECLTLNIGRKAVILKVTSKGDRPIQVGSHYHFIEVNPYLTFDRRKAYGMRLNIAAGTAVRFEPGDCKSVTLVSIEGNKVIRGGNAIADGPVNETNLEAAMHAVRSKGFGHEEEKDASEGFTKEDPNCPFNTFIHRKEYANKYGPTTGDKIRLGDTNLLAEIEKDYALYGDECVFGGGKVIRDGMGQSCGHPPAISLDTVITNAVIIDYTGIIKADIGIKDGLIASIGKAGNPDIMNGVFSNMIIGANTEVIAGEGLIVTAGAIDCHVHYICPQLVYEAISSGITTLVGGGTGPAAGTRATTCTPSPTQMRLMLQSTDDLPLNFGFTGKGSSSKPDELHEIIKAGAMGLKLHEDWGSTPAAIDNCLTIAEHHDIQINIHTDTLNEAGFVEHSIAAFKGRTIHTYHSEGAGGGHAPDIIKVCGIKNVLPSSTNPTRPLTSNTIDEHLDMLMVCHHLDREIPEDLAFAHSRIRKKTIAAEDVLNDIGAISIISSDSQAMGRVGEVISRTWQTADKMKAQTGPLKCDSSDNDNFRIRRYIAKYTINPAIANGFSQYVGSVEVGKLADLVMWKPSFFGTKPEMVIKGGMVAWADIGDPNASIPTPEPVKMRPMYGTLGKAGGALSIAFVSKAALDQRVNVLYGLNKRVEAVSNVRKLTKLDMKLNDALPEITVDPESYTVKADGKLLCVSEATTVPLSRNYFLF
# [1] = Antioxidant activity assessed as DPPH radical scavenging activity at 12 ug incubated for 30 mins by spectrophotometric analysis; assay type: functional; conditions: dose 12.0 µg
# Aspergillus ochraceus = assay: Antifungal activity against Aspergillus ochraceus assessed as diameter of inhibition zone by disc diffusion method; assay type: functional
# Penicillium chrysogenum = assay: Antifungal activity against Penicillium chrysogenum assessed as diameter of inhibition zone by disc diffusion method; assay type: functional
# [2] = Antioxidant activity assessed as H2O2 radical scavenging activity; assay type: functional
# MCF7 [3] = assay: cells; assay type: functional, cell-based; conditions: Homo sapiens, MCF7, 96 h
# HCT-116 = assay: Anticancer activity against human HCT-116 cells assessed as reduction in cell viability incubated for 96 hrs by MTT assay; assay type: functional, cell-based; conditions: HCT-116, 96 h
# [4] = Antioxidant activity assessed as NO radical scavenging activity; assay type: functional
# Staphylococcus aureus [5] = assay: Antibacterial activity against Staphylococcus aureus assessed as bacterial growth inhibition by broth microdilution method; assay type: functional
# Escherichia coli [6] = assay: Antibacterial activity against Escherichia coli assessed as bacterial growth inhibition by broth microdilution method; assay type: functional
# Klebsiella pneumoniae [7] = assay: Antibacterial activity against Klebsiella pneumoniae assessed as bacterial growth inhibition by broth microdilution method; assay type: functional
# Pseudomonas aeruginosa [8] = assay: Antibacterial activity against Pseudomonas aeruginosa assessed as bacterial growth inhibition by broth microdilution method; assay type: functional
# Capra hircus = species on record: Capra hircus; assay: Inhibition of goat lens AR at 100 uM incubated for 10 mins in presence of NADPH by spectroscopic analysis
# [9] = Antioxidant activity assessed as DPPH radical scavenging activity incubated for 20 mins by spectrophotometric analysis; assay type: functional; parameters: concentration or dose not given beside the values
# [10] = Antioxidant activity assessed as hydroxyl radical scavenging activity incubated for 5 mins by spectrophotometric analysis; assay type: functional; parameters: concentration or dose not given beside the values
# HeLa = assay: Anticancer activity against human HeLa cells assessed as reduction in cell viability incubated for 48 hrs by MTT assay; assay type: functional, cell-based
# MCF7 [11] = assay: cells; conditions: Homo sapiens, MCF7, 48 h
# Staphylococcus aureus [12] = assay: Antibacterial activity against Staphylococcus aureus NCIM 2654 assessed as diameter of inhibition zone incubated for 24 hrs by agar well diffusion method; assay type: functional
# Staphylococcus aureus [13] = assay: Antimicrobial activity against Staphylococcus aureus assessed as diameter of inhibition zone at 1 mg/ml incubated for 48 hrs by agar disk diffusion method; assay type: functional; conditions: read-out: DIZ
# Bacillus cereus = assay: Antimicrobial activity against Bacillus cereus assessed as diameter of inhibition zone at 1 mg/ml incubated for 48 hrs by agar disk diffusion method; assay type: functional; conditions: read-out: DIZ
# Escherichia coli [14] = assay: Antimicrobial activity against Escherichia coli assessed as diameter of inhibition zone at 1 mg/ml incubated for 48 hrs by agar disk diffusion method; assay type: functional; conditions: read-out: DIZ
# Klebsiella pneumoniae [15] = assay: Antimicrobial activity against Klebsiella pneumoniae assessed as diameter of inhibition zone at 1 mg/ml incubated for 48 hrs by agar disk diffusion method; assay type: functional; conditions: read-out: DIZ
# Pseudomonas aeruginosa [16] = assay: Antimicrobial activity against Pseudomonas aeruginosa assessed as diameter of inhibition zone at 1 mg/ml incubated for 48 hrs by agar disk diffusion method; assay type: functional; conditions: read-out: DIZ
# Aspergillus niger = assay: Antifungal activity against Aspergillus niger assessed as diameter of inhibition zone at 1 mg/ml incubated for 72 to 91 hrs by agar disk diffusion method; assay type: functional; conditions: time 72-91 hrs, read-out: DIZ
smiles,measurement,setting,value
Cc1ccc(C2C(C#N)=C(N)Oc3[nH]c(=O)[nH]c(=O)c32)cc1 (stereo not given),diameter of the inhibition zone (DIZ),Bacillus subtilis,10 mm
same,diameter of the inhibition zone (DIZ),Salmonella typhimurium,8 mm
same,IC50,Urease,71.9 µM
Cc1n[nH]c2c1C(c1ccncc1)c1c([nH]c(=O)[nH]c1=O)O2 (stereo not given),Activity,[1],59%
COc1ccc(C2c3c(ncn(C)c3=N)Oc3ccc4cc(Br)ccc4c32)cc1 (stereo not given),diameter of the inhibition zone (DIZ),Aspergillus ochraceus,17 mm
same,diameter of the inhibition zone (DIZ),Penicillium chrysogenum,13 mm
CCOc1ccc(C2C(C#N)=C(N)Oc3cc(O)ccc32)cc1 (stereo not given),IC50,[2],53.54 µg/mL
CN1C(=O)C2C(c3ccccc3)C(C#N)=C(N)OC2N(C)C1=O (stereo not given),IC50,Urease,98.8 µM
O=c1[nH]c2c(c(=O)[nH]1)C(c1cccs1)c1[nH]c(=S)n(-c3ccccc3)c(=O)c1O2 (stereo not given),IC50,MCF7 [3],1.28 µM
same,IC50,HCT-116,2.76 µM
Nc1ncnc2c1C(c1ccc(Br)cc1)c1ccc(O)cc1O2 (stereo not given),IC50,[4],50.32 µg/mL
CCO/C=N/C1=C(C#N)C(c2ccc(OC)cc2)c2c(n(C)c(=O)n(C)c2=O)O1 (stereo not given),MIC,Staphylococcus aureus [5],6.25 µg/mL
same,MIC,Escherichia coli [6],6.25 µg/mL
same,MIC,Klebsiella pneumoniae [7],6.25 µg/mL
same,MIC,Pseudomonas aeruginosa [8],6.25 µg/mL
O=c1[nH]c2c(c(=O)[nH]1)Oc1c(c(=O)oc3ccccc13)C2c1cccc([N+](=O)[O-])c1 (stereo not given),inhibition,Capra hircus,59%
same,Activity,[9],59.1%
same,Activity,[10],54.3%
Nc1ncnc2c1Oc1[nH]c(=O)[nH]c(=O)c1C2c1cccs1 (stereo not given),IC50,MCF7 [3],0.87 µM
same,IC50,HCT-116,7.25 µM
Nc1ncnc2c1C(c1cc(Cl)ccc1O)c1ccc(O)cc1O2 (stereo not given),IC50,[4],50.32 µg/mL
Nc1nc(S)nc2c1Oc1[nH]c(=O)[nH]c(=O)c1C2c1cccs1 (stereo not given),IC50,MCF7 [3],2.65 µM
same,IC50,HCT-116,2.76 µM
O=c1[nH]c2c(c(=O)[nH]1)Oc1c(c(=O)oc3ccccc13)C2c1ccc([N+](=O)[O-])cc1 (stereo not given),inhibition,Capra hircus,39%
same,Activity,[9],59.1%
same,Activity,[10],54.3%
O=C1Nc2c(c(=O)oc3ccccc23)C(c2ccc(Br)cc2)N1 (stereo not given),IC50,HeLa,59 µM
same,IC50,MCF7 [11],38 µM
Nc1nn(-c2cc([N+](=O)[O-])ccc2[N+](=O)[O-])c2c1Oc1[nH]c(=O)[nH]c(=O)c1C2c1cccs1 (stereo not given),IC50,MCF7 [3],3.17 µM
same,IC50,HCT-116,2.8 µM
O=C1Nc2c(c(=O)oc3ccccc23)C(c2ccc(O)cc2)N1 (stereo not given),IC50,HeLa,38 µM
same,IC50,MCF7 [11],38 µM
COc1ccc(C2c3c(N)ncnc3Oc3ccc4cc(Br)ccc4c32)cc1 (stereo not given),diameter of the inhibition zone (DIZ),Aspergillus ochraceus,17 mm
same,diameter of the inhibition zone (DIZ),Penicillium chrysogenum,13 mm
COc1cc(C2C(C#N)=C(N)Oc3cc(O)ccc32)ccc1O (stereo not given),IC50,[2],53.54 µg/mL
same,IC50,[4],50.32 µg/mL
Cn1c2c(c(=O)n(C)c1=O)C(c1ccc(O)cc1)C(C#N)=C(N)O2 (stereo not given),IC50,Urease,108 µM
O=c1c(O)c(-c2ccc(O)c(O)c2)oc2cc(O)cc(O)c12,inhibition,Capra hircus,92%
CONC1=C(C#N)Oc2[nH]c(=O)[nH]c(=O)c2C1c1cccs1 (stereo not given),IC50,MCF7 [3],3.12 µM
same,IC50,HCT-116,6.38 µM
Cc1n[nH]c2c1C(/C=C/c1ccccc1)c1c([nH]c(=O)[nH]c1=O)O2 (stereo not given),diameter of the inhibition zone (DIZ),Staphylococcus aureus [12],16 mm
same,Activity,[1],90.3%
COC(=O)C1=C(N)Oc2[nH]c(=S)[nH]c(=O)c2C1c1cccc(Cl)c1 (stereo not given),zone of inhibition at 1000 µg/mL,Staphylococcus aureus [13],10 mm
same,zone of inhibition at 1000 µg/mL,Bacillus cereus,12 mm
same,zone of inhibition at 1000 µg/mL,Escherichia coli [14],8 mm
same,zone of inhibition at 1000 µg/mL,Klebsiella pneumoniae [15],11 mm
same,zone of inhibition at 1000 µg/mL,Pseudomonas aeruginosa [16],9 mm
same,zone of inhibition at 1000 µg/mL,Aspergillus niger,12 mm
O=C1Nc2c(c(=O)oc3ccccc23)C(c2ccccc2)N1 (stereo not given),IC50,HeLa,46 µM
same,IC50,MCF7 [11],33 µM
